In PubChem BioAssay AID330 (DTP/NCI, 2004):
Several values for one entry are separate records, joined by “and”; a condition that tells them apart may be missing. Equal entries are not always repeated. Inconclusive results and toxic doses are left out.

System: P388 leukemia ip, CD2F1 mice, survival T/C
Assay: NCI In Vivo Anticancer Drug Screen. Data for tumor model P388 Leukemia (intraperitoneal) in CD2F1 (CDF1) mice
Details: endpoint: median survival time, higher = longer survival
Procedure, shortened: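 Mice carrying the transplanted tumor received test compound or vehicle. Survival was recorded in each group, and the value is the treated-group measurement divided by that of the vehicle-treated control group.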

[1] = dose: 50.0 mg/kg/injection, schedule: Q01DX009 (ip), vehicle: saline
[2] = dose: 100.0 mg/kg/injection, schedule: Q01DX009 (ip), vehicle: saline
[3] = dose: 200.0 mg/kg/injection, schedule: Q01DX009 (ip), vehicle: saline
[4] = dose: 50.0 mg/kg/injection, schedule: Q01DX005 (ip), vehicle: saline
[5] = dose: 100.0 mg/kg/injection, schedule: Q01DX005 (ip), vehicle: saline
[6] = dose: 50.0 mg/kg/injection, schedule: Q01DX009 (ip), vehicle: Klucel (hydroxypropylcellulose) (HPC)
[7] = dose: 60.0 mg/kg/injection, schedule: Q01DX005 (ip), vehicle: saline with Tween-80
[8] = dose: 25.0 mg/kg/injection, schedule: Q01DX009 (ip), vehicle: saline with Tween-80
[9] = dose: 100.0 mg/kg/injection, schedule: Q04DX003 (ip), vehicle: saline with Tween-80
[10] = dose: 200.0 mg/kg/injection, schedule: Q04DX003 (ip), vehicle: saline with Tween-80
[11] = dose: 400.0 mg/kg/injection, schedule: Q04DX003 (ip), vehicle: saline with Tween-80
[12] = dose: 50.0 mg/kg/injection, schedule: Q01DX009 (ip), vehicle: saline with Tween-80
[13] = dose: 100.0 mg/kg/injection, schedule: Q01DX009 (ip), vehicle: saline with Tween-80
[14] = dose: 200.0 mg/kg/injection, schedule: Q01DX009 (ip), vehicle: saline with Tween-80
[15] = dose: 50.0 mg/kg/injection, schedule: Q01DX005 (ip), vehicle: Klucel (hydroxypropylcellulose) (HPC)
[16] = dose: 100.0 mg/kg/injection, schedule: Q01DX005 (ip), vehicle: Klucel (hydroxypropylcellulose) (HPC)
[17] = dose: 200.0 mg/kg/injection, schedule: Q01DX005 (ip), vehicle: Klucel (hydroxypropylcellulose) (HPC)

For [Br][Rh][Br].[NH-]c1nc2ccc(Br)cc2s1.[NH-]c1nc2ccc(Br)cc2s1.[NH-]c1nc2ccc(Br)cc2s1.[NH-]c1nc2ccc(Br)cc2s1, the T/C [1] was 100 % of control, the T/C [2] was 98 % of control and the T/C [3] was 100 % of control.
With CN=c1ccc2cc3ccc(NC)cc3oc-2c1 the T/C [4] was 92 % of control and the T/C [5] was 89 % of control.
For CCN(CC)CCCC(C)Nc1ccc2cc(OC)ccc2n1 (configuration not stated), the T/C (dose: 6.25 mg/kg/injection, schedule: Q01DX005 (ip), vehicle: saline) was 103 % of control and the T/C (dose: 12.5 mg/kg/injection, schedule: Q01DX005 (ip), vehicle: saline) was 103 % of control.
Nc1ccc(S(=O)(=O)c2cc(O)c3ccccc3c2O)cc1 was tested, and the T/C [6] was 104 % of control.
CN(C)CCOC(=O)Nc1ccc(Cc2ccc(NC(=O)OCCN(C)C)cc2)cc1 was tested, and the T/C (dose: 15.0 mg/kg/injection, schedule: Q01DX005 (ip), vehicle: saline with Tween-80) was 109 % of control, the T/C (dose: 30.0 mg/kg/injection, schedule: Q01DX005 (ip), vehicle: saline with Tween-80) was 101 % of control and the T/C [7] was 101 % of control and 109 % of control.
In the case of O=S(=O)(C(Br)CBr)C(Br)CBr (configuration not stated), the T/C (dose: 6.25 mg/kg/injection, schedule: Q01DX009 (ip), vehicle: saline with Tween-80) is reported as 113 % of control, the T/C (dose: 12.5 mg/kg/injection, schedule: Q01DX009 (ip), vehicle: saline with Tween-80) is reported as 118 % of control and the T/C [8] is reported as 122 % of control.
With Cc1nnc2c3nccn3ccn12 the T/C (dose: 12.5 mg/kg/injection, schedule: Q01DX001 (ip), vehicle: saline with Tween-80) was 106 % of control, the T/C (dose: 25.0 mg/kg/injection, schedule: Q01DX001 (ip), vehicle: saline with Tween-80) was 101 % of control and the T/C (dose: 50.0 mg/kg/injection, schedule: Q01DX001 (ip), vehicle: saline with Tween-80) was 106 % of control.
For CN(Cc1cnc2nc(N)nc(N)c2n1)c1c(Cl)cc(C(=O)NC(CCC(=O)O)C(=O)O)cc1Br (configuration not stated), the T/C (dose: 0.3 mg/kg/injection, schedule: Q01DX003 (ip), vehicle: saline) was 183 % of control, the T/C (dose: 0.4 mg/kg/injection, schedule: Q01DX003 (ip), vehicle: saline) was 177 % of control and the T/C [9] was 170 % of control. For the same compound, the T/C [10] was 170 % of control, the T/C [11] was 162 % of control and 195 % of control and the T/C (dose: 600.0 mg/kg/injection, schedule: Q04DX003 (ip), vehicle: saline with Tween-80) was 154 % of control.
For CCCCC(CC)CSCN(CC)CC (configuration not stated), the T/C [1] was 100 % of control, the T/C [2] was 102 % of control and the T/C [3] was 112 % of control.
In the case of O=S(=O)(O)Nc1ccccc1, the T/C (dose: 12.5 mg/kg/injection, schedule: Q01DX009 (ip), vehicle: water) is reported as 100 % of control, the T/C (dose: 25.0 mg/kg/injection, schedule: Q01DX009 (ip), vehicle: water) is reported as 104 % of control and the T/C (dose: 50.0 mg/kg/injection, schedule: Q01DX009 (ip), vehicle: water) is reported as 99 % of control. For the same compound, the T/C (dose: 100.0 mg/kg/injection, schedule: Q01DX009 (ip), vehicle: water) was 100 % of control and the T/C (dose: 200.0 mg/kg/injection, schedule: Q01DX009 (ip), vehicle: water) was 101 % of control.
For CC(c1ccccc1)C1CC1 (configuration not stated), the T/C [12] was 103 % of control, the T/C [13] was 107 % of control and the T/C [14] was 98 % of control.
For COc1cc(C=O)c(C=O)cc1OC, the T/C (dose: 25.0 mg/kg/injection, schedule: Q04DX003 (ip), vehicle: saline with Tween-80) was 100 % of control.
In the case of COc1cc(OC)c2c(=O)c3cccc([N+](=O)[O-])c3n(C)c2c1, the T/C (dose: 100.0 mg/kg/injection, schedule: Q01DX001 (ip), vehicle: saline with Tween-80) is reported as 104 % of control, the T/C (dose: 200.0 mg/kg/injection, schedule: Q01DX001 (ip), vehicle: saline with Tween-80) is reported as 100 % of control and the T/C (dose: 400.0 mg/kg/injection, schedule: Q01DX001 (ip), vehicle: saline with Tween-80) is reported as 98 % of control.
For CS/C(=N\N=C(/C)c1ccccn1)SS/C(=N/N=C(\C)c1ccccn1)SC, the T/C (dose: 12.5 mg/kg/injection, schedule: Q01DX005 (ip), vehicle: saline + Tween-80 + alcohol) was 98 % of control, the T/C (dose: 25.0 mg/kg/injection, schedule: Q01DX005 (ip), vehicle: saline + Tween-80 + alcohol) was 97 % of control and the T/C (dose: 50.0 mg/kg/injection, schedule: Q01DX005 (ip), vehicle: saline + Tween-80 + alcohol) was 101 % of control and 103 % of control. The T/C (dose: 100.0 mg/kg/injection, schedule: Q01DX005 (ip), vehicle: saline + Tween-80 + alcohol) was 111 % of control.
With O=C1OC(Cl)C=C1c1ccccc1 (configuration not stated) the T/C (dose: 50.0 mg/kg/injection, schedule: Q01DX009 (ip), vehicle: suspension in saline) was 95 % of control, the T/C (dose: 100.0 mg/kg/injection, schedule: Q01DX009 (ip), vehicle: suspension in saline) was 101 % of control and the T/C (dose: 200.0 mg/kg/injection, schedule: Q01DX009 (ip), vehicle: suspension in saline) was 101 % of control.
For COc1cc2c(cc1OC)C(CSC)Cc1cc(OC)c(OC)cc1N(C)CCC2 (configuration not stated), the T/C [9] was 102 % of control, the T/C [10] was 93 % of control and the T/C [11] was 93 % of control.
In the case of Cn1c(C=O)cnc1[N+](=O)[O-], the T/C (dose: 12.5 mg/kg/injection, schedule: Q01DX009 (ip), vehicle: Klucel (hydroxypropylcellulose) (HPC)) is reported as 108 % of control, the T/C (dose: 25.0 mg/kg/injection, schedule: Q01DX009 (ip), vehicle: Klucel (hydroxypropylcellulose) (HPC)) is reported as 111 % of control and the T/C [6] is reported as 111 % of control and 115 % of control.
With N#CN(Cc1ccccc1)Cc1ccccc1.[I][Sn]([c]1ccccc1)([c]1ccccc1)[c]1ccccc1 the T/C (dose: 1.5 mg/kg/injection, schedule: Q01DX005 (ip), vehicle: saline with Tween-80) was 101 % of control, the T/C (dose: 3.0 mg/kg/injection, schedule: Q01DX005 (ip), vehicle: saline with Tween-80) was 108 % of control and the T/C (dose: 6.0 mg/kg/injection, schedule: Q01DX005 (ip), vehicle: saline with Tween-80) was 100 % of control. For the same compound, the T/C (dose: 6.25 mg/kg/injection, schedule: Q01DX005 (ip), vehicle: saline with Tween-80) was 94 % of control.
For O=C(N/N=C/c1c(O)ccc2ccccc12)C(=O)N/N=C/c1c(O)ccc2ccccc12, the T/C (dose: 12.5 mg/kg/injection, schedule: Q01DX005 (ip), vehicle: saline with Tween-80) was 97 % of control, the T/C (dose: 25.0 mg/kg/injection, schedule: Q01DX005 (ip), vehicle: saline with Tween-80) was 94 % of control and the T/C (dose: 50.0 mg/kg/injection, schedule: Q01DX005 (ip), vehicle: saline with Tween-80) was 121 % of control. For the same compound, the T/C (dose: 100.0 mg/kg/injection, schedule: Q01DX005 (ip), vehicle: saline with Tween-80) was 186 % of control.
In the case of COc1cc(=O)[nH]c(-c2ccccc2)c1OC, the T/C [7] is reported as 99 % of control, the T/C (dose: 120.0 mg/kg/injection, schedule: Q01DX005 (ip), vehicle: saline with Tween-80) is reported as 99 % of control and the T/C (dose: 240.0 mg/kg/injection, schedule: Q01DX005 (ip), vehicle: saline with Tween-80) is reported as 99 % of control.
With O=c1n(-c2ccccc2)c(=O)n2n1C1C3C4C5C3C2C5(F)C41 (configuration not stated) the T/C (dose: 100.0 mg/kg/injection, schedule: Q04DX003 (ip), vehicle: Klucel (hydroxypropylcellulose) (HPC)) was 103 % of control and the T/C (dose: 200.0 mg/kg/injection, schedule: Q04DX003 (ip), vehicle: Klucel (hydroxypropylcellulose) (HPC)) was 104 % of control.
With Cc1nc2ccc(Br)cc2c(=O)n1-c1ccc(-c2n[nH]c(=S)n2-c2ccccc2)cc1 the T/C [15] was 102 % of control, the T/C [16] was 104 % of control and the T/C [17] was 104 % of control.
In the case of CCOC(=O)C1(Br)CCCCC1Br (configuration not stated), the T/C [8] is reported as 108 % of control and 111 % of control, the T/C [12] is reported as 115 % of control and 118 % of control and the T/C [13] is reported as 113 % of control and 118 % of control and 119 % of control.
O=C(NS(=O)C1C=CC2CCCC21)OC1CCCCC1c1ccccc1 (configuration not stated) was tested, and the T/C [15] was 109 % of control, the T/C [16] was 100 % of control and the T/C [17] was 97 % of control.
For C=C1C(=O)OC2C1CCC(C)C1C=CC(=O)C12C (configuration not stated), the T/C (dose: 25.0 mg/kg/injection, schedule: Q04DX002 (ip), vehicle: saline with Tween-80) was 115 % of control, the T/C (dose: 50.0 mg/kg/injection, schedule: Q04DX002 (ip), vehicle: saline with Tween-80) was 114 % of control and the T/C (dose: 100.0 mg/kg/injection, schedule: Q04DX002 (ip), vehicle: saline with Tween-80) was 119 % of control.
For O=C1c2ccccc2C2N1CCC1CCc3ccccc3N12 (configuration not stated), the T/C [12] was 92 % of control, the T/C [13] was 91 % of control and the T/C [14] was 89 % of control.
For Cc1ncc(CO)c(C=Nc2ccccc2N=Cc2c(CO)cnc(C)c2O)c1O.[Zn], the T/C [15] was 104 % of control, the T/C [16] was 105 % of control and the T/C [17] was 101 % of control.
With CCCCCCCC/C=C\CCCCCCCC(=O)OCCN(CCOC(=O)CCCCCCC/C=C\CCCCCCCC)C(=O)c1ccccc1 the T/C [12] was 116 % of control, the T/C [13] was 97 % of control and the T/C [14] was 111 % of control.
For CCCCCCNC(C)C, the T/C [4] was 104 % of control and the T/C [5] was 101 % of control.
